In ChEMBL document CHEMBL3044753, “Polyamines May Modulate Both G Protein-Coupled Receptors and G Proteins” (Med Chem Res, 2004):
Active and inactive are the calls of the source.

Key:
Right cardiac atrium [1] = assay: Negative ionotropic activity in electrically-paced Cavia porcellus (guinea pig) right atrium assessed as effect on force measured immediately by isometric transducer analysis in presence of benzalkonium/prazosin; format: functional, tissue-based
Left cardiac atrium [2] = assay: Negative ionotropic activity in electrically-paced Cavia porcellus (guinea pig) left atrium measured immediately by isometric transducer analysis in presence of AM 251; format: functional, tissue-based
Left cardiac atrium [3] = assay: Negative […] activity in electrically-paced Cavia porcellus (guinea pig) left atrium measured immediately by isometric transducer analysis in presence of benextramine; format: functional, tissue-based
Right cardiac atrium [4] = assay: Negative ionotropic activity in electrically-paced Cavia porcellus (guinea pig) right atrium measured immediately by isometric transducer analysis in presence of thioperamide; format: functional, tissue-based
Left cardiac atrium [5] = assay: Negative ionotropic activity in electrically-paced Cavia porcellus (guinea pig) left atrium measured immediately by isometric transducer analysis in presence of 4-DAMP mustard; format: functional, tissue-based
Left cardiac atrium [6] = assay: Negative […] activity in electrically-paced Cavia porcellus (guinea pig) left atrium measured immediately by isometric transducer analysis in presence of dihydroergocristine; format: functional, tissue-based
Right cardiac atrium [7] = assay: Negative ionotropic activity in electrically-paced Cavia porcellus (guinea pig) right atrium assessed as effect on force measured immediately by isometric transducer analysis in absence of benzalkonium/prazosin relative to arecaidine propargyl ester; format: functional
Left cardiac atrium [8] = assay: Negative […] activity in electrically-paced Cavia porcellus (guinea pig) left atrium measured immediately by isometric transducer analysis in presence of benzalkonium/prazosin relative to arecaidine propargyl ester; format: functional
Right cardiac atrium [9] = assay: Negative […] activity in electrically-paced Cavia porcellus (guinea pig) right atrium assessed as effect on rate measured immediately by isometric transducer analysis in absence of benzalkonium/prazosin; format: functional, tissue-based
Left cardiac atrium [10] = assay: Negative […] activity in electrically-paced Cavia porcellus (guinea pig) left atrium measured immediately by isometric transducer analysis in presence of prazosin; format: functional, tissue-based
Left cardiac atrium [11] = assay: Negative […] activity in electrically-paced Cavia porcellus (guinea pig) left atrium measured immediately by isometric transducer analysis in presence of naloxane; format: functional, tissue-based
Left cardiac atrium [12] = assay: Negative ionotropic activity in electrically-paced Cavia porcellus (guinea pig) left atrium measured immediately by isometric transducer analysis in presence of AM 630; format: functional, tissue-based
Left cardiac atrium [13] = assay: Negative […] activity in electrically-paced Cavia porcellus (guinea pig) left atrium measured immediately by isometric transducer analysis in presence of thioperamide; format: functional, tissue-based
Right cardiac atrium [14] = assay: Negative […] activity in electrically-paced Cavia porcellus (guinea pig) right atrium assessed as effect on rate measured immediately by isometric transducer analysis in presence of benzalkonium/prazosin relative to arecaidine propargyl ester; format: functional
Right cardiac atrium [15] = assay: Negative ionotropic activity in electrically-paced Cavia porcellus (guinea pig) right atrium measured immediately by isometric transducer analysis in presence of methoctramine; format: functional, tissue-based
Right cardiac atrium [16] = assay: Negative ionotropic activity in electrically-paced Cavia porcellus (guinea pig) right atrium measured immediately by isometric transducer analysis in presence of bupranolol; format: functional, tissue-based
Right cardiac atrium [17] = assay: Negative ionotropic activity in electrically-paced Cavia porcellus (guinea pig) right atrium assessed as effect on force measured immediately by isometric transducer analysis in absence of benzalkonium/prazosin; format: functional, tissue-based
Right cardiac atrium [18] = assay: Negative ionotropic activity in electrically-paced Cavia porcellus (guinea pig) right atrium assessed as effect on force measured immediately by isometric transducer analysis in presence of benzalkonium/prazosin relative to arecaidine propargyl ester; format: functional
Right cardiac atrium [19] = assay: Negative […] activity in electrically-paced Cavia porcellus (guinea pig) right atrium measured immediately by isometric transducer analysis in presence of […]; format: functional, tissue-based
Right cardiac atrium [20] = assay: Negative […] activity in electrically-paced Cavia porcellus (guinea pig) right atrium measured immediately by isometric transducer analysis in presence of DPCPX; format: functional, tissue-based
Left cardiac atrium [21] = assay: Negative ionotropic activity in electrically-paced Cavia porcellus (guinea pig) left atrium measured immediately by isometric transducer analysis in absence of benzalkonium/prazosin relative to arecaidine propargyl ester; format: functional
Right cardiac atrium [22] = assay: Negative […] activity in electrically-paced Cavia porcellus (guinea pig) right atrium measured immediately by isometric transducer analysis in presence of benzalkonium; format: functional, tissue-based
Left cardiac atrium [23] = assay: Negative […] activity in electrically-paced Cavia porcellus (guinea pig) left atrium measured immediately by isometric transducer analysis in presence of atropine; format: functional, tissue-based
Left cardiac atrium [24] = assay: Negative […] activity in electrically-paced Cavia porcellus (guinea pig) left atrium measured immediately by isometric transducer analysis in presence of benzalkonium/prazosin; format: functional, tissue-based
Left cardiac atrium [25] = assay: Negative ionotropic activity in electrically-paced Cavia porcellus (guinea pig) left atrium measured immediately by isometric transducer analysis in absence of benzalkonium/prazosin; format: functional, tissue-based
Right cardiac atrium [26] = assay: Negative […] activity in electrically-paced Cavia porcellus (guinea pig) right atrium measured immediately by isometric transducer analysis in presence of 4-DAMP mustard; format: functional, tissue-based
Right cardiac atrium [27] = assay: Negative […] activity in electrically-paced Cavia porcellus (guinea pig) right atrium measured immediately by isometric transducer analysis in presence of ANR 83; format: functional, tissue-based
Right cardiac atrium [28] = assay: Negative […] activity in electrically-paced Cavia porcellus (guinea pig) right atrium assessed as effect on rate measured immediately by isometric transducer analysis in presence of benzalkonium/prazosin; format: functional, tissue-based
Left cardiac atrium [29] = assay: Reversible negative ionotropic activity in electrically-paced Cavia porcellus (guinea pig) left atrium incubated for few seconds followed by compound washout measured after 3 hr by isometric transducer analysis in absence of benzalkonium/prazosin; format: functional, tissue-based
Right cardiac atrium [30] = assay: Negative […] activity in electrically-paced Cavia porcellus (guinea pig) right atrium assessed as effect on rate measured immediately by isometric transducer analysis in absence of benzalkonium/prazosin relative to arecaidine propargyl ester; format: functional
Left cardiac atrium [31] = assay: Negative […] activity in electrically-paced Cavia porcellus (guinea pig) left atrium measured immediately by isometric transducer analysis in presence of methoctramine; format: functional, tissue-based
Left cardiac atrium [32] = assay: Negative ionotropic activity in electrically-paced Cavia porcellus (guinea pig) left atrium measured immediately by isometric transducer analysis in presence of ANR 83; format: functional, tissue-based
Left cardiac atrium [33] = assay: Negative […] activity in electrically-paced Cavia porcellus (guinea pig) left atrium measured immediately by isometric transducer analysis in presence of bupranolol; format: functional, tissue-based
Left cardiac atrium [34] = assay: Negative […] activity in electrically-paced Cavia porcellus (guinea pig) left atrium measured immediately by isometric transducer analysis in presence of benzalkonium; format: functional, tissue-based
Left cardiac atrium [35] = assay: Negative […] activity in electrically-paced Cavia porcellus (guinea pig) left atrium measured immediately by isometric transducer analysis in presence of pimozide; format: functional, tissue-based
Right cardiac atrium [36] = assay: Negative ionotropic activity in electrically-paced Cavia porcellus (guinea pig) right atrium measured immediately by isometric transducer analysis in presence of dihydroergocristine; format: functional, tissue-based
Right cardiac atrium [37] = assay: Negative […] activity in electrically-paced Cavia porcellus (guinea pig) right atrium measured immediately by isometric transducer analysis in presence of atropine; format: functional, tissue-based
Right cardiac atrium [38] = assay: Negative […] activity in electrically-paced Cavia porcellus (guinea pig) right atrium measured immediately by isometric transducer analysis in presence of benextramine; format: functional, tissue-based
Right cardiac atrium [39] = assay: Negative ionotropic activity in electrically-paced Cavia porcellus (guinea pig) right atrium measured immediately by isometric transducer analysis in presence of prazosin; format: functional, tissue-based
Right cardiac atrium [40] = assay: Reversible negative ionotropic activity in electrically-paced Cavia porcellus (guinea pig) right atrium incubated for few seconds followed by compound washout measured after 3 hr by isometric transducer analysis in absence of benzalkonium/prazosin; format: functional, tissue-based
Right cardiac atrium [41] = assay: Negative ionotropic activity in electrically-paced Cavia porcellus (guinea pig) right atrium measured immediately by isometric transducer analysis in presence of pimozide; format: functional, tissue-based
Right cardiac atrium [42] = assay: Negative […] activity in electrically-paced Cavia porcellus (guinea pig) right atrium measured immediately by isometric transducer analysis in presence of AM 251; format: functional, tissue-based

COc1ccccc1CN1CCC(C2CCN(C(=O)CCCCCCC(=O)N3CCC(C4CCN(Cc5ccccc5OC)CC4)CC3)CC2)CC1 [PIPERTRAMINE AMIDE]
0.977 nM: EC50 (Right cardiac atrium [9])
0.0316 nM: EC50 (Left cardiac atrium [25])
37%: Efficacy (Right cardiac atrium [30])
0.0417 nM: EC50 (Left cardiac atrium [24])
58%: Efficacy (Left cardiac atrium [21])
2.29 nM: EC50 (Right cardiac atrium [1])
79%: Efficacy (Right cardiac atrium [7])
42%: Efficacy (Right cardiac atrium [14])
inactive: Activity (Left cardiac atrium [5]) | Activity (Right cardiac atrium [15]) | Activity (Left cardiac atrium [23]) | Activity (Right cardiac atrium [26]) | Activity (Left cardiac atrium [31]) | Activity (Right cardiac atrium [37])
1.55 nM: EC50 (Right cardiac atrium [17])
81%: Efficacy (Right cardiac atrium [18])
active: Activity (Left cardiac atrium [2]) | Activity (Left cardiac atrium [3]) | Activity (Right cardiac atrium [4]) | Activity (Left cardiac atrium [6]) | Activity (Left cardiac atrium [10]) | Activity (Left cardiac atrium [11]) | Activity (Left cardiac atrium [12]) | Activity (Left cardiac atrium [13]) | Activity (Right cardiac atrium [16]) | Activity (Right cardiac atrium [19]) | Activity (Right cardiac atrium [20]) | Activity (Right cardiac atrium [22]) | Activity (Right cardiac atrium [27]) | Activity (Left cardiac atrium [29]) | Activity (Left cardiac atrium [32]) | Activity (Left cardiac atrium [33]) | Activity (Left cardiac atrium [34]) | Activity (Left cardiac atrium [35]) | Activity (Right cardiac atrium [36]) | Activity (Right cardiac atrium [38]) | Activity (Right cardiac atrium [39]) | Activity (Right cardiac atrium [40]) | Activity (Right cardiac atrium [41]) | Activity (Right cardiac atrium [42])
1.51 nM: EC50 (Right cardiac atrium [28])
60%: Efficacy (Left cardiac atrium [8])
